{"source": "ChEMBL document CHEMBL5149973", "about": "“Agaricus bisporus-Derived Glucosamine Hydrochloride Facilitates Skeletal Injury Repair through Bmp Signaling in Zebrafish Osteoporosis Model” (J Nat Prod, 2021)", "key": {"Danio rerio [1]": {"species_on_record": "Danio rerio", "assay": "Induction of Zebrafish embryo skeletal development assessed as increase in Smad5 gene expression level in head at 0.1 % measured for 0.75 to 24 hrs post fertilization by ISH analysis", "format": "functional, tissue-based", "details": "time 0.75-24 hrs"}, "Danio rerio [2]": {"species_on_record": "Danio rerio", "assay": "Induction of Zebrafish embryo skeletal development assessed as increase in gfp expression level in ventral head at 0.05 to 0.3 % measured at 24 to 72 hrs post fertilization by DAPI staining based analysis", "format": "functional, tissue-based", "details": "dose 0.05-0.3 %, time 24-72 hrs"}, "Danio rerio [3]": {"species_on_record": "Danio rerio", "assay": "Suppression of Bmp signaling in mCherry Zebrafish embryos assessed as increase in colocalization in tail by measuring fluorescence intensity at 0.1 % measured at 36 hrs post fertilization", "format": "functional, organism-based", "details": "Embryo"}, "Danio rerio [4]": {"species_on_record": "Danio rerio", "assay": "Induction of Zebrafish embryo skeletal development assessed as upregulation of col10a1a gene expression in operculum at 0.01 to 0.3 % measured after 72 hrs post fertilization by […] analysis", "format": "functional", "details": "dose 0.01-0.3 %"}, "Danio rerio [5]": {"species_on_record": "Danio rerio", "assay": "Induction of Zebrafish embryo skeletal development assessed as upregulation of […] gene expression in dent at 0.01 to 0.3 % measured after 72 hrs post fertilization by […] analysis", "format": "functional, tissue-based", "details": "dose 0.01-0.3 %"}, "Danio rerio [6]": {"species_on_record": "Danio rerio", "assay": "Induction of Zebrafish Larva caudal fin regeneration assessed as increase in bone mass measured for 15 days by Calcein staining based assay", "format": "functional", "details": "time 15.0 day"}, "Osteoblast [7]": {"test_system": "Osteoblast", "assay": "Induction of osteoblast differentiation in transgenic osx mCherry Zebrafish embryo assessed as increase in Col10a1a mRNA expression in fin at 0.1 % measured after 15 days by semiquantitative PCR analysis", "format": "functional", "details": "Danio rerio, time 15.0 day"}, "Danio rerio [8]": {"species_on_record": "Danio rerio", "assay": "Suppression of Bmp signaling in Zebrafish embryo assessed as reduction in slight loss of tail tissue at 0.1 % measured at 26 hrs post fertilization in presence of dorsomorphin", "format": "functional", "parameters": "scale not given: the % may be the effect or the level left"}, "Danio rerio [9]": {"species_on_record": "Danio rerio", "assay": "Suppression of Bmp signaling in Zebrafish tBr injected mRNA embryos assessed as reduction in slight loss of tail tissue at 2.5 uM measured at 26 hrs post fertilization", "format": "functional, Embryo", "parameters": "scale not given: the % may be the effect or the level left"}, "Danio rerio [10]": {"species_on_record": "Danio rerio", "assay": "Anti-osteoporosis activity in FAC-induced skeletal injury Zebrafish assessed as rescue of skeletal density in caudal fins at 0.1 % measured for 10 day post fertilization", "format": "functional, organism-based"}, "Danio rerio [11]": {"species_on_record": "Danio rerio", "assay": "Induction of Zebrafish embryo skeletal development assessed as upregulation of col1a2 gene expression at 0.05 to 0.3 % measured after 72 hrs post fertilization by […] analysis", "format": "functional, tissue-based", "details": "dose 0.05-0.3 %"}, "Danio rerio [12]": {"species_on_record": "Danio rerio", "assay": "Suppression of Bmp signaling in Zebrafish embryos assessed as decrease in Bmp2b gene expression level at 0.1 % measured at 26 hrs post fertilization by semiquantitative PCR analysis", "format": "functional, tissue-based", "details": "Embryo"}, "[13]": {"assay": "Induction of Zebrafish Larva cartilage development assessed as increase in bone mineralization at 0.3 % measured at 6 days post fertilization by Alizarin red staining based assay", "format": "functional, Danio rerio", "details": "time 6 day"}, "Osteoblast [14]": {"test_system": "Osteoblast", "assay": "Induction of osteoblast differentiation in transgenic osx mCherry Zebrafish embryo assessed as increase in Col1a2 mRNA expression in fin at 0.1 % measured after 15 days by semiquantitative PCR analysis", "format": "functional, tissue-based", "details": "Danio rerio, time 15.0 day"}, "Osteoblast [15]": {"test_system": "Osteoblast", "assay": "Induction of osteoblast differentiation in transgenic osx mCherry Zebrafish embryo assessed as increase in Sox9b mRNA expression in fin at 0.1 % measured after 15 days by semiquantitative PCR analysis", "format": "functional, tissue-based", "details": "Danio rerio, time 15.0 day"}, "Danio rerio [16]": {"species_on_record": "Danio rerio", "assay": "Induction of transgenic Zebrafish embryo skeletal development assessed as increase in GFP expression level in neural crest at 0.05 to 0.3 % measured at 24 to 72 hrs post fertilization by DAPI staining based analysis", "format": "functional, tissue-based", "details": "dose 0.05-0.3 %, time 24-72 hrs"}, "[17]": {"assay": "Induction of Zebrafish Larva cartilage development assessed as increase in H1 phenotype ratio at 0.1 % measured after 5 days post fertilization by Alcian blue staining based assay", "format": "functional, Danio rerio", "details": "time 5 day"}, "Danio rerio [18]": {"species_on_record": "Danio rerio", "assay": "Suppression of Bmp signaling in Zebrafish embryos assessed as decrease in Bmp4 gene expression level at 0.1 % measured at 26 hrs post fertilization by semiquantitative PCR analysis", "format": "functional, tissue-based", "details": "Embryo"}, "Danio rerio [19]": {"species_on_record": "Danio rerio", "assay": "Anti-osteoporosis activity in FAC-induced skeletal injury Zebrafish larvae assessed as increase in Col1a2 mRNA expression level measured for 10 day post fertilization by semiquantitative-PCR analysis", "format": "functional, organism-based", "details": "Larva"}, "Osteoblast [20]": {"test_system": "Osteoblast", "assay": "Induction of osteoblast differentiation in Zebrafish embryo assessed as upregulation of runx2b gene expression in head measured at 0.75 to 72 hrs post fertilization at 0.05 to 0.3 % by […] analysis", "format": "functional", "details": "Danio rerio, dose 0.05-0.3 %, time 0.75-72 hrs"}, "Danio rerio [21]": {"species_on_record": "Danio rerio", "assay": "Induction of Zebrafish embryo skeletal development assessed as increase in Smad1 gene expression level in spine at 0.1 % measured for 0.75 to 24 hrs post fertilization by ISH analysis", "format": "functional, tissue-based", "details": "time 0.75-24 hrs"}, "[22]": {"assay": "Induction of Zebrafish embryo skeletal development assessed as fatality rate measured at percentage concentration incubated after 72 hrs post fertilization by Alcian blue staining based assay", "format": "functional, Danio rerio"}, "[23]": {"assay": "Induction of Zebrafish Larva cartilage development assessed as increase in bone mineralization at 0.1 % measured at 6 days post fertilization by Alizarin red staining based assay", "format": "functional, Danio rerio", "details": "time 6 day"}, "Danio rerio [24]": {"species_on_record": "Danio rerio", "assay": "Induction of Zebrafish embryo skeletal development assessed as increase in Bmp2b mRNA expression level in head at 0.1 to 0.3 % measured at 24 hrs post fertilization by ISH analysis", "format": "functional, tissue-based", "details": "dose 0.1-0.3 %"}, "Danio rerio [25]": {"species_on_record": "Danio rerio", "assay": "Anti-osteoporosis activity in FAC-induced skeletal injury Zebrafish larvae assessed as increase in BGP mRNA expression level measured for 10 day post fertilization by semiquantitative-PCR analysis", "format": "functional, organism-based", "details": "Larva"}, "Danio rerio [26]": {"species_on_record": "Danio rerio", "assay": "Induction of Zebrafish embryo skeletal development assessed as increase in Bmp2b mRNA expression level in gastrula stage at 0.05 to 0.1 % measured at 24 hrs post fertilization by ISH analysis", "format": "functional, tissue-based", "details": "dose 0.05-0.1 %"}, "[27]": {"assay": "Induction of Zebrafish Larva caudal fin regeneration measured for 15 days by Calcein staining based assay", "format": "functional, Danio rerio", "details": "time 15 day"}, "Osteoblast [28]": {"test_system": "Osteoblast", "assay": "Induction of osteoblast differentiation in transgenic osx mCherry Zebrafish embryo assessed as increase in Sox9a mRNA expression in fin at 0.1 % measured after 15 days by semiquantitative PCR analysis", "format": "functional, tissue-based", "details": "Danio rerio, time 15.0 day"}, "Danio rerio [29]": {"species_on_record": "Danio rerio", "assay": "Suppression of Bmp signaling in Zebrafish embryos assessed as decrease in Sox9a gene expression level at 0.1 % measured at 26 hrs post fertilization by semiquantitative PCR analysis", "format": "functional, tissue-based", "details": "Embryo"}, "[30]": {"assay": "Induction of Zebrafish Larva cartilage development assessed as increase in H2 phenotype ratio at 0.3 % measured after 5 days post fertilization by Alcian blue staining based assay", "format": "functional, Danio rerio", "details": "time 5 day"}, "Danio rerio [31]": {"species_on_record": "Danio rerio", "assay": "Suppression of Bmp signaling in Zebrafish embryos assessed as decrease in Col10a1a gene expression level at 0.1 % measured at 26 hrs post fertilization by semiquantitative PCR analysis", "format": "functional, tissue-based", "details": "Embryo"}, "Danio rerio [32]": {"species_on_record": "Danio rerio", "assay": "Induction of Zebrafish embryo skeletal development assessed as nuclear localization of p-Smad5 in head at 0.1 % measured at 24 to 72 hrs post fertilization by DAPI staining based analysis", "format": "functional, tissue-based", "details": "time 24-72 hrs"}, "Osteoblast [33]": {"test_system": "Osteoblast", "assay": "Induction of osteoblast differentiation in Zebrafish embryo assessed as upregulation of runx2b gene expression in parasphenoid measured at 0.75 to 72 hrs post fertilization at 0.05 to 0.3 % by […] analysis", "format": "functional", "details": "Danio rerio, dose 0.05-0.3 %, time 0.75-72 hrs"}, "[34]": {"assay": "Induction of Zebrafish embryo skeletal development assessed as mortality rate of embryo at 0.1 % measured after 72 hrs post fertilization by Alcian blue staining based assay", "format": "functional, Danio rerio"}}, "note": "Active and inactive are the calls of the source. The rule behind the calls is not given here."}
{"smiles": "Cl.N[C@@H]1[C@@H](O)[C@H](O)[C@@H](CO)O[C@H]1O", "values": [{"measurement": "Activity", "setting": "Danio rerio [1]", "result": "Active"}, {"measurement": "Activity", "setting": "Danio rerio [2]", "result": "Active"}, {"measurement": "Activity", "setting": "Danio rerio [3]", "result": "Active"}, {"measurement": "Activity", "setting": "Danio rerio [4]", "result": "Active"}, {"measurement": "Activity", "setting": "Danio rerio [5]", "result": "Active"}, {"measurement": "Activity", "setting": "Danio rerio [6]", "result": "Active"}, {"measurement": "Activity", "setting": "Osteoblast [7]", "result": "Active"}, {"measurement": "Activity", "setting": "Danio rerio [8]", "result": 50, "unit": "%"}, {"measurement": "Activity", "setting": "Danio rerio [9]", "result": 80, "unit": "%"}, {"measurement": "Activity", "setting": "Danio rerio [10]", "result": "Active"}, {"measurement": "Activity", "setting": "Danio rerio [11]", "result": "Active"}, {"measurement": "Activity", "setting": "Danio rerio [12]", "result": "Active"}, {"measurement": "Activity", "setting": "[13]", "result": 79, "unit": "%"}, {"measurement": "Activity", "setting": "Osteoblast [14]", "result": "Active"}, {"measurement": "Activity", "setting": "Osteoblast [15]", "result": "Active"}, {"measurement": "Activity", "setting": "Danio rerio [16]", "result": "Active"}, {"measurement": "Activity", "setting": "[17]", "result": 40, "unit": "%"}, {"measurement": "Activity", "setting": "Danio rerio [18]", "result": "Active"}, {"measurement": "Activity", "setting": "Danio rerio [19]", "result": "Active"}, {"measurement": "Activity", "setting": "Osteoblast [20]", "result": "Active"}, {"measurement": "Activity", "setting": "Danio rerio [21]", "result": "Active"}, {"measurement": "IC50", "setting": "[22]", "result": 0.324, "unit": "%"}, {"measurement": "Activity", "setting": "[23]", "result": 88, "unit": "%"}, {"measurement": "Activity", "setting": "Danio rerio [24]", "result": "Active"}, {"measurement": "Activity", "setting": "Danio rerio [25]", "result": "Active"}, {"measurement": "Activity", "setting": "Danio rerio [26]", "result": "Active"}, {"measurement": "Activity", "setting": "[27]", "result": 50, "unit": "%"}, {"measurement": "Activity", "setting": "Osteoblast [28]", "result": "Active"}, {"measurement": "Activity", "setting": "Danio rerio [29]", "result": "Active"}, {"measurement": "Activity", "setting": "[30]", "result": 50, "unit": "%"}, {"measurement": "Activity", "setting": "Danio rerio [31]", "result": "Active"}, {"measurement": "Activity", "setting": "Danio rerio [32]", "result": "Active"}, {"measurement": "Activity", "setting": "Osteoblast [33]", "result": "Active"}, {"measurement": "Activity", "setting": "[34]", "result": 24, "unit": "%"}]}
